These results are taken from ChEMBL document CHEMBL4393730, “Thiazolidinedione and thiazole derivatives potentiate norfloxacin activity against NorA efflux pump over expression in Staphylococcus aureus 1199B strains” (Bioorg Med Chem, 2019).

A short description of series [1]: Cytotoxicity against mouse L929 cells assessed as cell growth inhibition at 50 ug/ml measured after 72 hrs by MTT method relative to control. In kind it is cell-based. Particulars: read-out: GI. (In general: Formazan colour is commonly taken as a measure of viable cells.)
In series [2] the test system is Staphylococcus aureus. Description: Antibacterial activity against wild type Staphylococcus aureus 1199 devoid of norA efflux pump assessed as norfloxacin MIC measured after 24 hrs by broth microdilution method (reference value: 64 +/- 1 microg/ml). In kind it is functional. To be noted: Staphylococcus aureus, 1199, 24 h. (Dilution methods test growth across graded concentrations, often in twofold steps.)

Series [3] concerns the target T1, Quinolone resistance protein NorA (Staphylococcus aureus) (UniProt P0A0J7).
T1 sequence (whole entry): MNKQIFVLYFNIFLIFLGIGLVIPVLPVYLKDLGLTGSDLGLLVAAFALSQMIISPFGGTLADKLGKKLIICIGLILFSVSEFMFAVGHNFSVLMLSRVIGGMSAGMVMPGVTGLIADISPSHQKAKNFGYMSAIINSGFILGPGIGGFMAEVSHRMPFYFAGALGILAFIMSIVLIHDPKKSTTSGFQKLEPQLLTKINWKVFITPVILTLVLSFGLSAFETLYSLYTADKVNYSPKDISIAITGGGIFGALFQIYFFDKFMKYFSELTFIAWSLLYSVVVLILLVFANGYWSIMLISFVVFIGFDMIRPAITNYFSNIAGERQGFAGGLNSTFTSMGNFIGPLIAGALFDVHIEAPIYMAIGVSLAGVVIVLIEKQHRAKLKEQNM
Description: Inhibition of NorA efflux pump in multidrug resistant Staphylococcus aureus 1199B mutant assessed as norfloxacin MIC measured after 24 hrs by broth microdilution method (reference value: 256 +/- 1 microg/ml).

Series [4] relates to Staphylococcus aureus. Description: Antibacterial activity against wild type Staphylococcus aureus 1199 devoid of NorA efflux pump measured after 24 hrs by broth microdilution method. In kind it is functional. To be noted: Staphylococcus aureus, 1199, 24 h.
Series [5] deals with Staphylococcus aureus. Description: Antibacterial activity against multidrug resistant Staphylococcus aureus 1199B mutant strain carrying NorA efflux pump assessed as growth inhibition measured after 24 hrs by broth microdilution method. It is filed as functional.
Series [6] has as its system Staphylococcus aureus. Kind of series: Antibacterial activity against wild type Staphylococcus aureus 1199 devoid of norA efflux pump assessed as reduction in norfloxacin MIC measured after 24 hrs by broth microdilution method relative to norfloxacin. In kind it is functional.
In series [7] the target is T1, Quinolone resistance protein NorA (Staphylococcus aureus). Description: Inhibition of NorA efflux pump in multidrug resistant Staphylococcus aureus 1199B mutant assessed as reduction in norfloxacin MIC measured after 24 hrs by broth microdilution method relative to norfloxacin.

Consider `COc1ccc(Br)cc1/C=N/Nc1nc(-c2ccc([N+](=O)[O-])cc2)cs1`, for which the inhibition at 72 h, 50 ug/ml in series [1] stood at 39.9%. In addition, the MIC is 5 µg/mL in the series with Staphylococcus aureus [2], 128 µg/mL in series [3], > 1020 µg/mL against Staphylococcus aureus [4] and > 1020 µg/mL in the series with Staphylococcus aureus [5].

Turning to `COc1ccc(Br)cc1/C=N/Nc1nc(-c2ccc(-c3ccccc3)cc2)cs1`, in series [1], the inhibition at 72 h, 50 ug/ml came to 15%. The MIC with Staphylococcus aureus [2] was 1020 µg/mL; in series [3] it was 1020 µg/mL; against Staphylococcus aureus [4] it was > 1020 µg/mL; in the series on Staphylococcus aureus [5], > 1020 µg/mL.

In the case of `COc1ccc(Br)cc1/C=N/Nc1nc(-c2ccc(Cl)cc2)cs1`, in series [1], the inhibition at 72 h, 50 ug/ml came out at 30.1%. In addition, the MIC in the series on Staphylococcus aureus [2] was 0.63 µg/mL; in series [3] it was 40.3 µg/mL; against Staphylococcus aureus [4] it was > 1020 µg/mL; in the series with Staphylococcus aureus [5] it was > 1020 µg/mL. Also, the “fold change (FC)” value (in the series on Staphylococcus aureus [6]; in series [7]) was 3 throughout.

In the case of `COc1ccc(Br)cc1/C=N/Nc1nc(-c2ccccc2)cs1`, the inhibition at 72 h, 50 ug/ml in series [1] turned out to be 24.4%. The MIC in the series with Staphylococcus aureus [2] was 0.5 µg/mL; in series [3] it was 50.8 µg/mL; against Staphylococcus aureus [4] it was > 1020 µg/mL; in the series with Staphylococcus aureus [5], > 1020 µg/mL. Besides, the “fold change (FC)” value (with Staphylococcus aureus [6]; in series [7]) was 3 throughout.

Consider `COc1ccc(Br)cc1/C=N/Nc1nc(-c2ccc(F)cc2)cs1`, for which the inhibition at 72 h, 50 ug/ml in series [1] came to 31.2%. The MIC in the series with Staphylococcus aureus [2] was 1020 µg/mL; in series [3] it was 1020 µg/mL; against Staphylococcus aureus [4] it was > 1020 µg/mL; in the series on Staphylococcus aureus [5], > 1020 µg/mL.

For the compound `COc1ccc(Br)cc1/C=N/Nc1nc(-c2ccc(Br)cc2)cs1`, in series [1], the inhibition at 72 h, 50 ug/ml was 17.3%. For the same compound, the MIC in the series with Staphylococcus aureus [2] was 16 µg/mL; in series [3] it was 64 µg/mL; in the series on Staphylococcus aureus [4] it was > 1020 µg/mL; with Staphylococcus aureus [5], > 1020 µg/mL. In addition, the “fold change (FC)” value (in the series on Staphylococcus aureus [6]; in series [7]) was 3 throughout.
